Assay [1] has as its target T1, mouse Mfsd2a (Mus musculus, UniProt Q9DA75).
T1 construct: expressed in transfected cells; host or cells: HEK293
T1 sequence (Q9DA75 1-534): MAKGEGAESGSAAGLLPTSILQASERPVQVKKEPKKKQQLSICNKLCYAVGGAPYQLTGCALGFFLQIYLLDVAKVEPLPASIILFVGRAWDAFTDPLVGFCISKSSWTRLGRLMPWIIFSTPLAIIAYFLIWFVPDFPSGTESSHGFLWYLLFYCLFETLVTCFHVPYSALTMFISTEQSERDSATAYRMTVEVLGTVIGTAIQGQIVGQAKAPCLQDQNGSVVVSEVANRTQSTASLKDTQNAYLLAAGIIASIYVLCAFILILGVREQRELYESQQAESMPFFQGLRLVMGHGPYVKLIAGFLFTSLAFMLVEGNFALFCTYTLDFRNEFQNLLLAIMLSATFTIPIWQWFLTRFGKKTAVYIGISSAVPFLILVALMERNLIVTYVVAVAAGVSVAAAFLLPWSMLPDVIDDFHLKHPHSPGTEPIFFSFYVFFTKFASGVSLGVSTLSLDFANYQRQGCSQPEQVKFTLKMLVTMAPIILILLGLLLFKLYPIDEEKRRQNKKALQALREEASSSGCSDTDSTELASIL
In words: Cell-based free fatty acid transport/uptake in Mfsd2a expressing HEK293 cells (mass spectrometry, TLC; Table 1). The conditions noted are these: for Amount of each lipid species, mol percent in total phospholipid analysed / Amount of lipid species, mol percent in total phospholipid analysed / Amount of each lipid species normalized to internal standard, mol percent in total phospholipid analysed: replicate columns; for Amount of lipid species, mol percent in total phospholipid analysed / Amount of each lipid species normalized to internal standard, mol percent in total phospholipid analysed: Mfsd2a expressing HEK293 cells. As for the experimental part:
(§1) FIG. 12. […] Std: free [^14C]-DHA. b. TLC analysis of phospholipids and neutral lipids of HEK293 cells transfected with mouse Mfsd2a and mutants after overnight incubation with 100 μM [^14C]-oleate. TLC protocol used was described in Methods. PC: phosphatidylcholine, PE: phosphatidylethanolamine, TAG: triglyceride, CE: cholesteryl ester.
(§2) For tissue lipid analysis, brain, liver, and heart of female WT and KO mice with age of 7-8 weeks born to HET mothers, and brains from e18.5 embryos were collected and immediately frozen with liquid nitrogen until extraction. Lipid extraction was followed by chloroform/methanol method. For cell-based free fatty acid transport, lipids from HEK293 cells expressing mouse Mfsd2a and mock controls after overnight treatment with 100 μM docosahexaenoic, arachidonic, eicosapentaenoic, alpha-linolenic, linoleic, oleic, palmitic acids in BSA complex were extracted using HIP buffer (hexane:iso-propanol 3:2, per volume) and dried under N2 gas. Phospholipid species were measured by high performance liquid chromatography (HPLC) 1100 system (Agilent) coupled with an Triple Quadrupole/Ion Trap mass spectrometer (4000Qtrap, Applied Biosystem). Levels of individual phospholipid species were analyzed as described previously and quantified using spiked internal standards that includes PC-14:0/14:0, PE-14:0/14:0, PS-14:0/14:0 (Avanti Polar Lipids, Alabaster, Ala., USA), and dioctanoyl PI (Echelon Biosciences, Inc., Salt Lake City, Utah, USA).

Assay [2] deals with mouse Mfsd2a. The description is as above. The conditions noted are these: for Amount of each lipid species, mol percent in total phospholipid analysed / Amount of each lipid species normalized to internal standard, mol percent in total phospholipid analysed / Amount of lipid species, mol percent in total phospholipid analysed: MS, replicate columns. How it is done: as §1, §2

[3] abbreviates: Mfsd2a HEK293 cells, 100 uM fatty acid/BSA overnight.
[4] abbreviates: mock HEK293 cells, 100 uM fatty acid/BSA overnight.
Where [5] appears, read: Mfsd2a expressing HEK293 cells incubated with 100 uM Arachidonic fatty acid/BSA complex overnight, MS.
Setting [6] is: 100 uM Alpha-linolenic fatty acid/BSA complex overnight.
[7] abbreviates: 100 uM Docosahexaenoic acid/BSA complex overnight, MS.
Where [8] appears, read: 100 uM Oleic fatty acid/BSA complex overnight, MS.
Setting [9] is: mock HEK293 cells incubated with 100 uM Arachidonic fatty acid/BSA complex overnight.
The mark [10] stands for this setting: mock HEK293 cells, 100 uM Docosahexaenoic acid/BSA complex overnight.
[11] abbreviates: mock HEK293 cells, 100 uM Oleic fatty acid/BSA complex overnight.

SMILES strings stand for the structures. “And” between values parts separate entries of the source, which are not always exact repeats. Identical values can stand only once.

For the compound `CCCCCCCC/C=C\CCCCCCCC(=O)O` [Oleic], on mouse Mfsd2a [1] (setting [3]), the “% DHA in PS” value was 0.1056% and 0.1088% and 0.1312% and 0.1092%; the “PS(sum) in total phospholipid” value is 2.787 mol percent and 2.992 mol percent and 3.252 mol percent and 2.587 mol percent; the “PS:36:1 in total phospholipid” value was 1.289 mol percent and 1.358 mol percent and 1.479 mol percent and 1.19 mol percent; the “PS:36:2 in total phospholipid” value was 0.4671 mol percent and 0.4839 mol percent and 0.5719 mol percent and 0.4252 mol percent. Further, on mouse Mfsd2a [1] (setting [3]), the “PS:36:3 in total phospholipid” value is 0.0188 mol percent and 0.02264 mol percent and 0.01888 mol percent and 0.01251 mol percent; the “PS:36:4 in total phospholipid” value was 0.003419 mol percent and 0.003995 mol percent and 0.004969 mol percent and 0.003335 mol percent; the “PS:38:2 in total phospholipid” value is 0.2325 mol percent and 0.2459 mol percent and 0.2529 mol percent and 0.1984 mol percent; the “PS:38:3 in total phospholipid” value is 0.1257 mol percent and 0.1554 mol percent and 0.1491 mol percent and 0.1276 mol percent. In addition, at mouse Mfsd2a [1] (setting [3]), the “PS:38:4 in total phospholipid” value is 0.06539 mol percent and 0.08301 mol percent and 0.08249 mol percent and 0.07253 mol percent; the “PS:38:5 in total phospholipid” value was 0.008121 mol percent and 0.01199 mol percent and 0.01093 mol percent and 0.01084 mol percent; the “PS:40:4 in total phospholipid” value was 0.09916 mol percent and 0.08523 mol percent and 0.1014 mol percent and 0.07753 mol percent; the “PS:40:5 in total phospholipid” value is 0.05001 mol percent and 0.05638 mol percent and 0.05863 mol percent and 0.05419 mol percent. Further, at mouse Mfsd2a [1] (setting [3]), the “PS:40:6 in total phospholipid” value is 0.09445 mol percent and 0.09677 mol percent and 0.1222 mol percent and 0.0942 mol percent; the “PS:40:7 in total phospholipid” value was 0.01111 mol percent and 0.01199 mol percent and 0.008944 mol percent and 0.01501 mol percent. In the assay with mouse Mfsd2a [2] (setting [4]), the “% DHA in PS” value is 0.107% and 0.1103% and 0.1249%; the “PS(sum) in total phospholipid” value is 2.685 mol percent and 3.082 mol percent and 2.902 mol percent; the “PS:36:1 in total phospholipid” value was 1.21 mol percent and 1.398 mol percent and 1.339 mol percent; the “PS:36:2 in total phospholipid” value is 0.4461 mol percent and 0.5356 mol percent and 0.4546 mol percent. Further, in the assay on mouse Mfsd2a [2] (setting [4]), the “PS:36:3 in total phospholipid” value is 0.0148 mol percent and 0.01325 mol percent and 0.01917 mol percent; the “PS:38:2 in total phospholipid” value is 0.2083 mol percent and 0.235 mol percent and 0.2311 mol percent; the “PS:38:3 in total phospholipid” value is 0.1326 mol percent and 0.1657 mol percent and 0.1369 mol percent; the “PS:38:4 in total phospholipid” value was 0.07625 mol percent and 0.06869 mol percent and 0.07723 mol percent. For the same compound, in the assay with mouse Mfsd2a [2] (setting [4]), the “PS:38:5 in total phospholipid” value is 0.01081 mol percent and 0.01386 mol percent and 0.0115 mol percent; the “PS:40:4 in total phospholipid” value is 0.09048 mol percent and 0.1018 mol percent and 0.09531 mol percent; the “PS:40:5 in total phospholipid” value was 0.06829 mol percent and 0.04459 mol percent and 0.0619 mol percent; the “PS:40:6 in total phospholipid” value was 0.09845 mol percent and 0.1006 mol percent and 0.1134 mol percent. Also, in the assay on mouse Mfsd2a [2] (setting [4]), the “PS:40:7 in total phospholipid” value is 0.008536 mol percent and 0.00964 mol percent and 0.0115 mol percent.

Turning to `CCCCCCCCCCCCCCCCOC[C@@H](O)COP(=O)([O-])OCC[N+](C)(C)C` [LysoPC16:0e], the “Amount of each lipid species, mol percent in total phospholipid analysed” value was 0.008218 mol percent and 0.00827 mol percent and 0.009441 mol percent and 0.01026 mol percent on mouse Mfsd2a [1] (setting [5]); 0.008219 mol percent and 0.01198 mol percent and 0.009457 mol percent in the assay with mouse Mfsd2a [2] (setting [9]). Also, the “Amount of lipid species, mol percent in total phospholipid analysed” value on mouse Mfsd2a [1] (setting [6]) is 0.004349 mol percent and 0.003802 mol percent and 0.005532 mol percent and 0.004823 mol percent; at mouse Mfsd2a [1] (100 uM Linoleic fatty acid/BSA complex overnight), 0.004905 mol percent and 0.004227 mol percent and 0.005291 mol percent and 0.006453 mol percent; on mouse Mfsd2a [1] (setting [8]) it was 0.002972 mol percent and 0.00261 mol percent and 0.002228 mol percent and 0.001403 mol percent; in the assay on mouse Mfsd2a [2] (setting [11]), 0.003153 mol percent and 0.001998 mol percent and 0.003294 mol percent. Further, the “Amount of each lipid species normalized to internal standard, mol percent in total phospholipid analysed” value on mouse Mfsd2a [1] (setting [7]) was 0.005111 mol percent and 0.004575 mol percent and 0.004499 mol percent and 0.004664 mol percent; at mouse Mfsd2a [1] (100 uM Eicosapentaenoic acid/BSA complex overnight, MS), 0.005369 mol percent and 0.005332 mol percent and 0.003584 mol percent and 0.004376 mol percent; with mouse Mfsd2a [2] (setting [10]) it was 0.005025 mol percent and 0.003881 mol percent and 0.00548 mol percent; in the assay with mouse Mfsd2a [2] (mock HEK293 cells, 100 uM Eicosapentaenoic acid/BSA complex overnight) it was 0.00417 mol percent and 0.00451 mol percent and 0.003651 mol percent.

`CCCCCCCCCCCCCCCC/C=C\OC[C@@H](O)COP(=O)(O)OCCN` [LysoPE18:0p]: the “Amount of each lipid species, mol percent in total phospholipid analysed” value on mouse Mfsd2a [1] (setting [5]) is 0.5873 mol percent and 0.5865 mol percent and 0.323 mol percent and 0.5348 mol percent; with mouse Mfsd2a [2] (setting [9]), 0.6519 mol percent and 0.416 mol percent and 0.215 mol percent.

In the case of `CCCCCCCCCCCCCCCCCC(=O)OC[C@@H](O)COP(=O)(O)O[C@@H]1[C@H](O)[C@H](O)[C@@H](O)[C@H](O)[C@H]1O` [LPI18:0], the “Amount of each lipid species, mol percent in total phospholipid analysed” value was 0.02508 mol percent and 0.03053 mol percent and 0.02667 mol percent and 0.03031 mol percent on mouse Mfsd2a [1] (setting [5]); 0.02916 mol percent and 0.03081 mol percent and 0.03115 mol percent and 0.03571 mol percent at mouse Mfsd2a [1] (Mfsd2a expressing HEK293 cells incubated with 100 uM Eicosapentaenoic fatty acid/BSA complex overnight, MS); 0.03307 mol percent and 0.03421 mol percent and 0.02228 mol percent with mouse Mfsd2a [2] (setting [9]); 0.03631 mol percent and 0.04031 mol percent and 0.03846 mol percent in the assay with mouse Mfsd2a [2] (mock HEK293 cells incubated with 100 uM Eicosapentaenoic fatty acid/BSA complex overnight). Besides, the “Amount of lipid species, mol percent in total phospholipid analysed” value at mouse Mfsd2a [1] (setting [6]) is 0.03202 mol percent and 0.03143 mol percent and 0.03738 mol percent and 0.03614 mol percent; at mouse Mfsd2a [1] (100 uM Linoleic fatty acid/BSA complex overnight, MS), 0.03216 mol percent and 0.02682 mol percent and 0.02809 mol percent and 0.04343 mol percent; on mouse Mfsd2a [1] (setting [8]), 0.02837 mol percent and 0.02931 mol percent and 0.02721 mol percent and 0.02894 mol percent; in the assay on mouse Mfsd2a [2] (mock HEK293 cells, 100 uM Linoleic fatty acid/BSA complex overnight), 0.03365 mol percent and 0.03811 mol percent and 0.02692 mol percent; in the assay with mouse Mfsd2a [2] (setting [11]), 0.02649 mol percent and 0.03117 mol percent and 0.0307 mol percent. For the same compound, the “Amount of each lipid species normalized to internal standard, mol percent in total phospholipid analysed” value on mouse Mfsd2a [1] (setting [7]) is 0.03395 mol percent and 0.02821 mol percent and 0.03136 mol percent and 0.02514 mol percent; in the assay with mouse Mfsd2a [2] (setting [10]), 0.0354 mol percent and 0.03721 mol percent and 0.03756 mol percent.
